Reference: PubChem BioAssay (NCI)
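GI50: concentration for 50% inhibition of growth. TGI marks complete inhibition of growth.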

Legend:
Assay in all cases: NCI anticancer screen, dose series, 384-well format
DU-145 prostate = tested on: DU-145 prostate
HCT-116 colon = tested on: HCT-116 colon
SK-MEL-5 melanoma = tested on: SK-MEL-5 melanoma
NCI-H23 lung = tested on: NCI-H23 lung
MDA-MB-231 breast = tested on: MDA-MB-231 breast
SN12C renal = tested on: SN12C renal
OVCAR-5 ovarian = tested on: OVCAR-5 ovarian
SNB-19 CNS = tested on: SNB-19 CNS
EKVX NSCLC = tested on: EKVX NSCLC
CCRF-CEM leukemia = tested on: CCRF-CEM leukemia
HCC-2998 colon = tested on: HCC-2998 colon
786-0 renal = tested on: 786-0 renal
COLO 205 colon = tested on: COLO 205 colon
MCF7 breast = tested on: MCF7 breast
OVCAR-4 ovarian = tested on: OVCAR-4 ovarian
SF-268 CNS = tested on: SF-268 CNS
PC-3 prostate = tested on: PC-3 prostate
NCI-H226 lung = tested on: NCI-H226 lung
HOP-62 NSCLC = tested on: HOP-62 NSCLC
MALME-3M melanoma = tested on: MALME-3M melanoma
K-562 leukemia = tested on: K-562 leukemia
NCI/ADR-RES ovarian = tested on: NCI/ADR-RES ovarian
OVCAR-3 ovarian = tested on: OVCAR-3 ovarian
HCT-15 colon = tested on: HCT-15 colon
CAKI-1 renal = tested on: CAKI-1 renal
HT29 colon = tested on: HT29 colon
UO-31 renal = tested on: UO-31 renal
BT-549 breast = tested on: BT-549 breast
SF-295 CNS = tested on: SF-295 CNS
ACHN renal = tested on: ACHN renal
MDA-MB-468 breast = tested on: MDA-MB-468 breast
NCI-H460 NSCLC = tested on: NCI-H460 NSCLC
SNB-75 CNS = tested on: SNB-75 CNS
SK-MEL-28 melanoma = tested on: SK-MEL-28 melanoma
M14 melanoma = tested on: M14 melanoma
SW-620 colon = tested on: SW-620 colon
IGROV1 ovarian = tested on: IGROV1 ovarian
HS 578T breast = tested on: HS 578T breast
NCI-H322M lung = tested on: NCI-H322M lung
MDA-MB-435 melanoma = tested on: MDA-MB-435 melanoma
TK-10 renal = tested on: TK-10 renal
UACC-62 melanoma = tested on: UACC-62 melanoma
A498 renal = tested on: A498 renal
SK-OV-3 ovarian = tested on: SK-OV-3 ovarian
MOLT-4 leukemia = tested on: MOLT-4 leukemia
LOX IMVI melanoma = tested on: LOX IMVI melanoma
NCI-H522 lung = tested on: NCI-H522 lung
A549 NSCLC = tested on: A549 NSCLC
KM12 colon = tested on: KM12 colon
U251 glioblastoma = tested on: U251 glioblastoma
HL-60(TB) leukemia = tested on: HL-60(TB) leukemia
T-47D breast = tested on: T-47D breast
SF-539 CNS = tested on: SF-539 CNS
RPMI-8226 leukemia = tested on: RPMI-8226 leukemia

**Q.** What does the source list for `Cc1ccc(C(=O)N(CCCN)C(c2oc3cc(Cl)ccc3c(=O)c2Cc2ccccc2)C(C)C)cc1` (stereo not drawn)?
**A.** GI50 (DU-145 prostate): < 10 nM; TGI (DU-145 prostate): 1100 nM; GI50 (HCT-116 colon): < 10 nM; TGI (HCT-116 colon): 1210 nM; GI50 (SK-MEL-5 melanoma): < 10 nM; TGI (SK-MEL-5 melanoma): < 10 nM; GI50 (NCI-H23 lung): < 10 nM; TGI (NCI-H23 lung): < 10 nM; GI50 (MDA-MB-231 breast): < 10 nM; TGI (MDA-MB-231 breast): 1840 nM; GI50 (SN12C renal): < 10 nM; TGI (SN12C renal): 1880 nM; GI50 (OVCAR-5 ovarian): < 10 nM; TGI (OVCAR-5 ovarian): 1570 nM; GI50 (SNB-19 CNS): < 10 nM; TGI (SNB-19 CNS): 1460 nM; GI50 (EKVX NSCLC): < 10 nM; TGI (EKVX NSCLC): 1920 nM; GI50 (CCRF-CEM leukemia): < 10 nM; TGI (CCRF-CEM leukemia): < 10 nM; GI50 (HCC-2998 colon): < 10 nM; TGI (HCC-2998 colon): 542 nM; GI50 ([…]-0 renal): < 10 nM; TGI (786-0 renal): 1390 nM; GI50 (COLO 205 colon): < 10 nM; TGI (COLO 205 colon): < 10 nM; GI50 (MCF7 breast): < 10 nM; TGI (MCF7 breast): 1370 nM; GI50 (OVCAR-4 ovarian): 1270 nM; TGI (OVCAR-4 ovarian): 2560 nM; GI50 (SF-268 CNS): < 10 nM; TGI (SF-268 CNS): < 10 nM; GI50 (PC-3 prostate): < 10 nM; TGI (PC-3 prostate): 1550 nM; GI50 (NCI-H226 lung): 1500 nM; TGI (NCI-H226 lung): 2840 nM; GI50 (HOP-62 NSCLC): < 10 nM; TGI (HOP-62 NSCLC): 1760 nM; GI50 (MALME-3M melanoma): < 10 nM; TGI (MALME-3M melanoma): 1740 nM; GI50 (K-562 leukemia): < 10 nM; TGI (K-562 leukemia): < 10 nM; GI50 (NCI/ADR-RES ovarian): 129 nM; TGI (NCI/ADR-RES ovarian): 286 nM; GI50 (OVCAR-3 ovarian): < 10 nM; TGI (OVCAR-3 ovarian): < 10 nM; GI50 (HCT-15 colon): < 10 nM; TGI (HCT-15 colon): 1230 nM; GI50 (CAKI-1 renal): < 10 nM; TGI (CAKI-1 renal): 1950 nM; GI50 (HT29 colon): < 10 nM; TGI (HT29 colon): < 10 nM; GI50 (UO-31 renal): 1110 nM; TGI (UO-31 renal): 2340 nM; GI50 (BT-549 breast): < 10 nM; TGI (BT-549 breast): 1360 nM; GI50 (SF-295 CNS): < 10 nM; TGI (SF-295 CNS): 1510 nM; GI50 (ACHN renal): 1160 nM; TGI (ACHN renal): 2420 nM; GI50 (MDA-MB-468 breast): < 10 nM; TGI (MDA-MB-468 breast): < 10 nM; GI50 (NCI-H460 NSCLC): < 10 nM; TGI (NCI-H460 NSCLC): < 10 nM; GI50 (SNB-75 CNS): < 10 nM; TGI (SNB-75 CNS): 1810 nM; GI50 (SK-MEL-28 melanoma): 1310 nM; TGI (SK-MEL-28 melanoma): 2600 nM; GI50 (M14 melanoma): < 10 nM; TGI (M14 melanoma): < 10 nM; GI50 (SW-620 colon): < 10 nM; TGI (SW-620 colon): 275 nM; GI50 (IGROV1 ovarian): 511 nM; TGI (IGROV1 ovarian): 2140 nM; GI50 (HS 578T breast): < 10 nM; TGI (HS 578T breast): < 10 nM; GI50 (NCI-H322M lung): < 10 nM; TGI (NCI-H322M lung): 2030 nM; GI50 (MDA-MB-435 melanoma): < 10 nM; TGI (MDA-MB-435 melanoma): < 10 nM; GI50 (TK-10 renal): 1540 nM; TGI (TK-10 renal): 2900 nM; GI50 (UACC-62 melanoma): < 10 nM; TGI (UACC-62 melanoma): 1290 nM; GI50 (A498 renal): 29 nM; TGI (A498 renal): 2010 nM; GI50 (SK-OV-3 ovarian): < 10 nM; TGI (SK-OV-3 ovarian): 1780 nM; GI50 (MOLT-4 leukemia): < 10 nM; TGI (MOLT-4 leukemia): < 10 nM; GI50 (LOX IMVI melanoma): < 10 nM; TGI (LOX IMVI melanoma): 1810 nM; GI50 (NCI-H522 lung): < 10 nM; TGI (NCI-H522 lung): < 10 nM; GI50 (A549 NSCLC): < 10 nM; TGI (A549 NSCLC): 1590 nM; GI50 (KM12 colon): < 10 nM; TGI (KM12 colon): 1180 nM; GI50 (U251 glioblastoma): < 10 nM; TGI (U251 glioblastoma): 1460 nM; GI50 (HL-60(TB) leukemia): < 10 nM; TGI (HL-60(TB) leukemia): < 10 nM; GI50 (T-47D breast): < 10 nM; TGI (T-47D breast): < 10 nM; GI50 (SF-539 CNS): < 10 nM; TGI (SF-539 CNS): 1260 nM; GI50 (RPMI-8226 leukemia): < 10 nM; TGI (RPMI-8226 leukemia): < 10 nM
